According to ChEMBL document CHEMBL1137986, “Multidrug resistance reversal activity of permethyl ningalin B amide derivatives” (Bioorg Med Chem Lett, 2004):
pIC50: −log10 of the molar value.

Tests used:
[1] = system: HCT-116; experiment: Intrinsic cytotoxic activity against wild type HCT116 cell line; type: functional, cell-based; conditions: Homo sapiens
[2] = system: HCT-116; experiment: Multi drug resistance reversal in HCT116/VM46 cell line treated with Vinblastine; type: functional, Homo sapiens
[3] = system: HCT-116; experiment: Intrinsic cytotoxic activity against Multidrug resistant HCT116/VM46 cell line; type: functional, cell-based; conditions: Homo sapiens
[4] = system: HCT-116; experiment: inhibitory activity of compound against Multidrug resistance HCT116/VM46 cell line treated with Doxorubicin; type: functional, cell-based; conditions: Homo sapiens
[5] = system: HCT-116; experiment: Multi drug resistance reversal in HCT116/VM46 cell line treated with Doxorubicin; type: functional, Homo sapiens
[6] = system: HCT-116; experiment: inhibitory activity of compound against Multidrug resistant HCT116/VM46 cell line treated with Vinblastine; type: functional, cell-based; conditions: Homo sapiens
[7] = system: HCT-116; experiment: Multi drug resistance reversal in HCT116/VM46 cell line treated with Doxorubicin at a compound concentration 7.5 uM; type: functional, Homo sapiens
[8] = system: HCT-116; experiment: Multi drug resistance reversal in HCT116/VM46 cell line treated with Vinblastine at a compound concentration 7.5 uM; type: functional, Homo sapiens
[9] = system: HCT-116; experiment: inhibitory activity of compound against Multidrug resistant HCT116/VM46 cell line treated with Doxorubicin at a compound concentration 7.5 uM; type: functional, cell-based; conditions: Homo sapiens
[10] = system: HCT-116; experiment: inhibitory activity against Multidrug resistant HCT116/VM46 cell line treated with Vinblastine at a compound concentration 7.5 uM; type: functional, cell-based; conditions: Homo sapiens
[11] = system: HCT-116; experiment: inhibitory activity of compound against multidrug resistant HCT116/VM46 cell line treated with Vinblastine; type: functional, cell-based; conditions: Homo sapiens
[12] = system: HCT-116; experiment: inhibitory activity of compound against multidrug resistance HCT116/VM46 cell line treated with Doxorubicin; type: functional, cell-based; conditions: Homo sapiens
[13] = system: HCT-116; experiment: Intrinsic cytotoxic activity against multidrug resistant HCT116/VM46 cell line; type: functional, cell-based; conditions: Homo sapiens

| SMILES | pIC50 [1] | Reversion [2] | pIC50 [3] | pIC50 [4] | Reversion [5] | pIC50 [6] | Reversion [7] | Reversion [8] | pIC50 [9] | pIC50 [10] | pIC50 [11] | pIC50 [12] | pIC50 [13] |
| --- | --- | --- | --- | --- | --- | --- | --- | --- | --- | --- | --- | --- | --- |
| COc1ccc(CCNNC(=O)c2c(-c3ccc(OC)c(OC)c3)c3c4cc(OC)c(OC)cc4oc(=O)c3n2CCc2ccc(OC)c(OC)c2)cc1OC | 5.30 | 100% | 5.30 | 7.00 | 100% | 8.40 |  |  |  |  |  |  |  |
| COc1ccc(CCn2c(C(=O)NCCCCCCNC(=O)c3c(-c4ccc(OC)c(OC)c4)c4c5cc(OC)c(OC)cc5oc(=O)c4n3CCc3ccc(OC)c(OC)c3)c(-c3ccc(OC)c(OC)c3)c3c4cc(OC)c(OC)cc4oc(=O)c32)cc1OC | < 4.00 | 15% | < 4.00 | 6.35 | 20% | 7.52 |  |  |  |  |  |  |  |
| COc1ccc(CCn2c(C(=O)N(C)C)c(-c3ccc(OC)c(OC)c3)c3c4cc(OC)c(OC)cc4oc(=O)c32)cc1OC | 4.60 | 100% | 4.70 | 7.00 | 100% | 8.70 | 1000% | 1000% | 8.00 | 9.70 |  |  |  |
| COc1cccc(CCNNC(=O)c2c(-c3ccc(OC)c(OC)c3)c3c4cc(OC)c(OC)cc4oc(=O)c3n2CCc2ccc(OC)c(OC)c2)c1 | 4.60 | 200% | 5.30 | 7.00 | 100% | 8.70 |  |  |  |  |  |  |  |
| COc1ccc(CCn2c(C(=O)NNCCc3cccs3)c(-c3ccc(OC)c(OC)c3)c3c4cc(OC)c(OC)cc4oc(=O)c32)cc1OC | < 4.00 | 100% | < 4.00 | 7.00 | 100% | 8.40 |  |  |  |  |  |  |  |
| COc1ccc(CCn2cc(-c3ccc(OC)c(OC)c3)c3c4cc(OC)c(OC)cc4oc(=O)c32)cc1OC |  | 100% |  |  |  | 8.70 |  |  |  |  |  |  |  |
| COc1ccc(CCn2c(C(=O)NNCCc3ccc(F)cc3)c(-c3ccc(OC)c(OC)c3)c3c4cc(OC)c(OC)cc4oc(=O)c32)cc1OC | 4.52 | 100% | 4.70 | 7.00 | 100% | 8.40 |  |  |  |  |  |  |  |
| COCCN(CCOC)NC(=O)c1c(-c2ccc(OC)c(OC)c2)c2c3cc(OC)c(OC)cc3oc(=O)c2n1CCc1ccc(OC)c(OC)c1 | 4.60 | 45% | 4.82 | 6.82 | 50% | 8.05 |  |  |  |  |  |  |  |
| COC(=O)c1c(-c2ccc(OC)c(OC)c2)c2c3cc(OC)c(OC)cc3oc(=O)c2n1CCc1ccc(OC)c(OC)c1 |  | 100% |  |  |  | 8.70 |  |  |  |  |  |  |  |
| COc1ccc(CCN(C)CCCC(C#N)(c2ccc(OC)c(OC)c2)C(C)C)cc1OC (stereo not drawn) |  | 10% |  | 6.30 | 20% | 7.70 |  |  |  |  |  |  |  |
| COc1ccc(OC)c(CCNNC(=O)c2c(-c3ccc(OC)c(OC)c3)c3c4cc(OC)c(OC)cc4oc(=O)c3n2CCc2ccc(OC)c(OC)c2)c1 | 4.60 | 200% | 5.00 | 7.00 | 100% | 8.70 |  |  |  |  |  |  |  |
| COc1ccc(CCn2c(C(=O)NNC(c3ccccc3)c3ccccc3)c(-c3ccc(OC)c(OC)c3)c3c4cc(OC)c(OC)cc4oc(=O)c32)cc1OC | 4.60 | 100% | 4.82 | 6.92 | 80% | 8.40 |  |  |  |  |  |  |  |
| COc1ccc(CCNNC(=O)c2c(-c3ccc(OC)c(OC)c3)c3c4cc(OC)c(OC)cc4oc(=O)c3n2CCc2ccc(OC)c(OC)c2)cc1 | 4.70 | 200% | 5.00 | 7.22 | 167% | 8.70 |  |  |  |  |  |  |  |
| COc1ccc(CCn2c(C(=O)NNCCCCCCSC(C)=O)c(-c3ccc(OC)c(OC)c3)c3c4cc(OC)c(OC)cc4oc(=O)c32)cc1OC | 4.70 | 25% | 4.46 | 6.70 | 50% | 8.00 |  |  |  |  |  |  |  |
| CC[C@]1(O)C[C@@H]2CN(CCc3c([nH]c4ccccc34)[C@@](C(=O)OC)(c3cc4c(cc3OC)N(C)[C@H]3[C@@](O)(C(=O)OC)[C@H](OC(C)=O)[C@]5(CC)C=CCN6CC[C@]43[C@@H]65)C2)C1 [VINBLASTINE] | 8.40 |  |  |  |  |  |  |  |  |  |  |  |  |
| COc1ccc(CCn2c(C(=O)NNCCc3ccc(O)cc3)c(-c3ccc(OC)c(OC)c3)c3c4cc(OC)c(OC)cc4oc(=O)c32)cc1OC | 4.82 | 25% | 5.00 | 6.74 | 55% | 8.00 |  |  |  |  |  |  |  |
| COc1ccc(CCn2c(C(=O)NCCNC(=O)c3c(-c4ccc(OC)c(OC)c4)c4c5cc(OC)c(OC)cc5oc(=O)c4n3CCc3ccc(OC)c(OC)c3)c(-c3ccc(OC)c(OC)c3)c3c4cc(OC)c(OC)cc4oc(=O)c32)cc1OC | < 4.00 | 10% | < 4.00 | 6.12 | 10% | 7.30 |  |  |  |  |  |  |  |
| COc1ccc(CNNC(=O)c2c(-c3ccc(OC)c(OC)c3)c3c4cc(OC)c(OC)cc4oc(=O)c3n2CCc2ccc(OC)c(OC)c2)cc1 | 4.40 | 100% | 4.52 | 6.92 | 80% | 8.40 |  |  |  |  |  |  |  |
| COc1ccc(C2CC2NNC(=O)c2c(-c3ccc(OC)c(OC)c3)c3c4cc(OC)c(OC)cc4oc(=O)c3n2CCc2ccc(OC)c(OC)c2)cc1 (stereo not drawn) | < 4.00 | 100% |  |  | 100% |  |  |  |  |  | 8.40 | 7.00 | < 4.00 |
| COc1ccc(CCn2c(C(=O)NN[C@@H](C)C(=O)OC(C)(C)C)c(-c3ccc(OC)c(OC)c3)c3c4cc(OC)c(OC)cc4oc(=O)c32)cc1OC | 5.15 | 50% | 5.40 | 6.74 | 55% | 8.10 |  |  |  |  |  |  |  |
| COc1ccc(CCn2c(C(=O)NN)c(-c3ccc(OC)c(OC)c3)c3c4cc(OC)c(OC)cc4oc(=O)c32)cc1OC | < 4.00 | 60% | < 4.00 | 6.62 | 40% | 8.15 |  |  |  |  |  |  |  |
| COc1ccc(CCn2c(C(=O)NN3CCC4(CC3)OCCO4)c(-c3ccc(OC)c(OC)c3)c3c4cc(OC)c(OC)cc4oc(=O)c32)cc1OC | 4.82 | 67% | 5.00 | 7.00 | 100% | 8.22 |  |  |  |  |  |  |  |
| COC(=O)[C@H](CCCNNC(=O)c1c(-c2ccc(OC)c(OC)c2)c2c3cc(OC)c(OC)cc3oc(=O)c2n1CCc1ccc(OC)c(OC)c1)NC(=O)OCc1ccccc1 | 4.35 | 80% | 4.40 | 7.00 | 100% | 8.30 |  |  |  |  |  |  |  |
| COc1ccc(CCn2c(C(=O)NNCCc3c[nH]c4ccccc34)c(-c3ccc(OC)c(OC)c3)c3c4cc(OC)c(OC)cc4oc(=O)c32)cc1OC | < 4.00 | 100% | < 4.00 | 7.00 | 100% | 8.40 |  |  |  |  |  |  |  |
